The structures appear in SMILES notation.

Turning to `Cc1cc2nc3c(=O)[nH]c(=O)nc-3n(C)c2cc1C`, the melting point – broadly, the temperature of the solid-liquid transition – turned out to be 320 °C.

For the compound `OCCCc1ccncc1`, the melting point is 37 °C.

On to `Cc1ccc(Cc2ccc(CP(=O)(c3ccccc3)c3ccccc3)o2)o1`, for which the melting point was 220 to 221 °C.

`COc1ccc(/C=C/c2ccc([N+](=O)[O-])cc2[N+](=O)[O-])cc1O` returned a melting point of 190 to 191 °C.

For `CCCCCCC(O)CCCCC` (stereo unspecified), the melting point is 30 °C.

`CCOC(=O)c1c(-c2ccc(Br)cc2)csc1N` came in with a melting point of 120 to 122 °C.

For the compound `Cc1cc(C=O)nn1C`, the melting point fell in the range of 56 to 57 °C.

`Cc1ccc(S(=O)(=O)N(C)N=O)cc1` came in with a melting point of 60 °C.

In the case of `O=c1c2ccccc2ccc2ccccc12`, the melting point worked out at 88.5 °C.

Compound `O=C(O)c1c(Cl)ccc(Cl)c1Cl` returned a melting point of 125 °C.

For the compound `CS(=O)(=O)c1ccc(C(=O)CBr)cc1`, the melting point is 126 to 128 °C.

For the compound `COc1ccc(C(=O)c2noc(-c3ccc(Br)cc3)c2S(=O)(=O)c2ccccc2)cc1`, the melting point turned out to be 150 °C.

Turning to `COc1ccc(Br)c(C(=O)NN)c1`, the melting point is 165 to 166 °C.

`CC1CCC2(NC1)OC1CC3C4CCC5CC(O)CCC5(C)C4CCC3(C)C1C2C` (stereo unspecified) came in with a melting point of 210 °C.

As for `Cc1ccccc1CN`, the melting point is -30 °C.

The compound `Cc1cc(O)cc(C)c1Br` registered a melting point of 115 °C.

Take `Nc1c(I)cc([N+](=O)[O-])cc1I`: the melting point lay within 251 to 256 °C.

`CC(C1=CCC(C(=O)O)C(C)(C)O1)(c1ccccc1)c1ccccc1` (stereo unspecified) showed a melting point of 145 °C.

Compound `CCOC(=O)C(SP(=S)(OC)OC)c1ccccc1` (stereo unspecified) showed a melting point of 17.5 °C.

In the case of `OCC1OC(Oc2ccc3cc(Br)ccc3c2)C(O)C(O)C1O` (stereo unspecified), the melting point was 218 to 220 °C.

Compound `C1=CCNCC1` showed a melting point of -48 °C.

As to `O=c1[nH]cc(Cl)cc1[N+](=O)[O-]`, the melting point was in the range of 234 to 236 °C.

In turn, `CCOC(=O)c1nnn2c3ccccc3c(=O)n(C)c12` gave a melting point of 149 to 150 °C.

Take `COC(=O)c1c(C)c(Br)c(OC)c(Br)c1OC`: the melting point came to 60 °C.

`Cn1ccc(-c2ccc(Br)cc2)n1`: the melting point was in the range of 79.5 to 81 °C.

Turning to `FC(F)(F)S(F)(F)(F)(F)F`, the melting point was -87 °C.

Compound `CC(=O)Nc1ccc2c(c1)CCC2=O` returned a melting point of 172 °C.

In turn, `CCCC(O)C=CC=CC=CC#CC#CCCCO` (stereo unspecified) registered a melting point of 54 °C.

For the compound `Cc1ccc(C(=S)N2CCCCC2)cc1`, the melting point came out at 93 °C.

In the case of `N#Cc1ccnc(I)c1`, the melting point was determined as 79 °C.

Compound `Nc1ccc(S(=O)(=O)N2CCCCC2)cc1` had a melting point of 169 to 170 °C.

`CCCCCCCCCCCCCCCCCCOC(C)=O` registered a melting point of 34.5 °C.

The compound `Cc1cc(C)c(N)c([N+](=O)[O-])c1` displayed a melting point of 67 °C.

`CCOC(=O)CN=C(c1ccccc1)c1ccccc1` had a melting point of 53 °C.

As to `O=C1c2ccccc2C(=O)N1CO`, the melting point is 144 °C.

As for `Nc1ccc(-c2ccc(-c3ccc(N)cc3)cc2)cc1`, the melting point came out at 247 °C.

`CC(=O)Oc1ccc(I)cc1` came in with a melting point of 32 °C.

`Cc1cc(Cn2nc(C)cc2C)c(O)c(Cn2nc(C)cc2C)c1`: the melting point came out at 125 °C.

For the compound `CC1(C)CC(=O)c2cc(-c3ccccc3)n(-c3cccc(C(F)(F)F)c3)c2C1`, the melting point lay in the range of 145 to 147 °C.

`O=[N+]([O-])c1cc(Cl)c(Cl)cc1Cl`: the melting point stood at 57.5 °C.

`CN1CCN(Cc2ccccc2CO)CC1` yielded a melting point of 62 to 64 °C.

As for `N#Cc1ccc(-c2nccs2)cc1`, the melting point was in the range of 102 to 103 °C.

Turning to `CCCC(c1ccccc1)c1ccccc1`, the melting point amounted to 27 °C.

For the compound `CCCCCCCCCCCCCC#N`, the melting point is 19 °C.

`Cc1cc([N+](=O)[O-])ccc1N=C=S` returned a melting point of 82 to 84 °C.

`COC1=C(OC)C(=O)C(C)=C(C)C1=O` yielded a melting point of 62.5 °C.

For the compound `Cc1nn(C(=O)OC(C)(C)C)c(C)c1I`, the melting point was in the range of 56 to 58 °C.

Compound `COc1ccc2cc([N+](=O)[O-])ccc2c1C=O` came in with a melting point of 174 °C.

In the case of `O=[N+]([O-])c1cccc(-c2nnc3n2NC(c2ccco2)S3)c1` (stereo unspecified), the melting point is 190 °C.

With `Nc1ccc(CCC(=O)O)cc1`, the melting point was 134 °C.

For `CCOC(=O)c1c(C=O)c(C)n(C2CC2)c1C`, the melting point is 75 to 80 °C.

In turn, `CC12CCCCC1CCC1C2CCC2(C)C1CCC2(O)C#CCl` (stereo unspecified) gave a melting point of 163 °C.

`c1ccc(C2CCCNC2)cc1` (stereo unspecified) yielded a melting point of 14.5 °C.

`CN1CCN(C(=O)OC2c3nccnc3C(=O)N2c2ccc(Cl)cn2)CC1` (stereo unspecified) returned a melting point of 178 °C.

In the case of `O=C1CCCCCCCCC1=O`, the melting point is 40.5 °C.

`N[C@@H]1C=C[C@H](C(=O)O)C1` had a melting point of 180 °C.

Regarding `CCCCN1CCCCC1C(=O)Nc1c(C)cccc1C` (stereo unspecified), the melting point was 107 °C.

The compound `O=C(O)C1(O)c2ccccc2-c2ccc(Cl)cc21` (stereo unspecified) came in with a melting point of 152 °C.

`O=C(n1ccnc1)C(F)(F)C(F)(F)C(F)(F)F`: the melting point was 11 °C.

`COc1ccc(-c2csc(/C(C#N)=N\Nc3ccncc3)n2)cc1` yielded a melting point of 255 °C.

`CCOC(=O)c1c(SC)nn2c(=O)n(Nc3ccccc3)cnc12` came in with a melting point of 118 to 122 °C.

`NC(=O)c1c(F)ccc(Cl)c1F` registered a melting point of 135 °C.

On to `COC(=O)c1ccc(OC)c(C#N)c1`, for which the melting point is 124 to 125 °C.

Take `Nc1ccc(Oc2c(Cl)cccc2Cl)nc1`: the melting point lay in the range of 120 to 122 °C.

The compound `O=[N+]([O-])c1ccc(F)c2nonc12` had a melting point of 52 °C.

The compound `N#CC1=C(N)Oc2[nH]nc(C(F)(F)F)c2C1c1ccc(Cl)cc1Cl` (stereo unspecified) registered a melting point of 199 °C.

`Cc1ccc2occ(C=O)c(=O)c2c1` yielded a melting point of 169 to 174 °C.

On to `Cc1c(Br)cc([N+](=O)[O-])cc1Br`, for which the melting point came out at 56 °C.

In the case of `CC(C)Oc1ccc(C(=O)NS(=O)(=O)c2ccc(N)cc2)cc1`, the melting point worked out at 172 °C.

Take `O=[N+]([O-])c1ccc(NN=Cc2cccc3c(Br)cccc23)cc1`: the melting point was 267 to 268 °C.

The compound `c1ccc2c(c1)NC1(CCCC1)O2` gave a melting point of 221 °C.

Turning to `O=C(CCl)Nc1ccc(F)cc1F`, the melting point is 79 to 81 °C.

Regarding `NNc1ccccn1`, the melting point is 46.6 °C.

In turn, `Cn1ccc2cc(S(=O)(=O)Cl)ccc21` gave a melting point of 79 to 80 °C.

As for `N#Cc1ncc(F)cc1F`, the melting point came out at 32 °C.

The compound `Cc1cc(N)ccc1N` yielded a melting point of 64 °C.

`CCN(CC)c1ccc(C=NN(c2ccccc2)c2ccccc2)cc1` had a melting point of 92 to 95 °C.

`CC(C)CCBr` had a melting point of -112 °C.

On to `COc1cc(O)ccc1C=O`, for which the melting point came out at 158 °C.

For `CC(O)C1CCC2C3CCC4CC(O)CCC4(C)C3CCC12C` (stereo unspecified), the melting point was 245 °C.

Consider `COc1ccccc1Nc1[nH]c(=S)nnc1-c1ccccc1`, for which the melting point was 241 to 242 °C.

Compound `CC1CCC2C(C)C3C(CC4C5CC=C6CC(O)CCC6(C)C5CCC43C)N2C1` (stereo unspecified) registered a melting point of 218 °C.

Take `Ic1ccc(N(c2ccc(I)cc2)c2ccc(I)cc2)cc1`: the melting point came out at 167 °C.

The compound `Oc1ccc2c(c1)C13CCCCC1C(C2)N(CC1CC1)CC3` (stereo unspecified) came in with a melting point of 188 °C.

In the case of `Cc1ccc(O)c(C)n1`, the melting point lay within 210 to 212 °C.

For `NNC(=O)c1ccc(Cl)cc1Cl`, the melting point was 169 °C.

Compound `N=C(N)NC(=N)Nc1ccccc1` displayed a melting point of 143 °C.

In the case of `CCCCCCCCCCCC(N)=O`, the melting point is 110 °C.

With `Cc1ccc2nc(C(F)(F)F)cc(Cl)c2c1`, the melting point is 62 to 65 °C.

`N#CC1(N2CCCCC2)CCN(Cc2ccccc2)CC1` registered a melting point of 103 to 106 °C.

In the case of `CC(=O)OCCBr`, the melting point was -13.8 °C.

`O=S(=O)(Nc1ccc(F)cc1C(F)(F)F)C(F)(F)F` gave a melting point of 45 °C.

The compound `COC(=O)[C@@H]1CCCN1C(=O)COC(=O)c1ccccc1` yielded a melting point of 72.5 °C.

Take `Cn1nc(-c2ccccc2)cc1CCl`: the melting point fell in the range of 70 to 72 °C.

`CCOC(=O)c1ccccc1C(=C1C=C(Br)C(=O)C(Br)=C1)c1cc(Br)c(O)c(Br)c1` returned a melting point of 208 to 211 °C.

Take `CC(=O)Nc1ccc(C#N)c(C)c1`: the melting point is 163 °C.

Compound `O=C(O)C1CCN(c2ccc(C(F)(F)F)cn2)CC1` displayed a melting point of 162 to 164 °C.

Consider `COc1nc(C)nc(NC(=O)NS(=O)(=O)c2ccccc2OCCCl)n1`, for which the melting point came out at 189 °C.

`C[Si](C)(C)OC1(C#Cc2ccccc2)Cc2ccccc21` (stereo unspecified): the melting point is 64 °C.

For `O=C(O)C1CCN(c2ncnc3ccsc23)CC1`, the melting point was 248 to 249 °C.

For the compound `OC1(c2ccc(Cl)c(C(F)(F)F)c2)CCN(CCCC(c2ccc(F)cc2)c2ccc(F)cc2)CC1`, the melting point was 106 °C.

`Nc1cccc2c1Cc1ccccc1-2`: the melting point stood at 126 °C.

`C[C@]12CC(=O)C[C@@]1(C)CC(=O)C2`: the melting point was in the range of 228 to 230 °C.

Turning to `CCCOC1CCC2C3CC=C4CC5(CCC4(C)C3CCC12C)OCCO5` (stereo unspecified), the melting point lay in the range of 213 to 214 °C.

`Cc1ccccc1-n1c(C)nc2ccccc2c1=O` gave a melting point of 120 °C.

The compound `N#Cc1ccc(C(F)(F)F)c(F)c1` registered a melting point of 47 °C.

`NC(=S)CNC(=O)OCc1ccccc1`: the melting point lay in the range of 144 to 146 °C.

In turn, `FC(F)(F)c1ccccc1CCc1ccccc1C(F)(F)F` returned a melting point of 75 °C.

Take `CCCCCCCCCCCC=CCCCCC(=O)O`: the melting point came to 29.8 °C.

On to `NCc1ccc(C(=O)O)cc1`, for which the melting point is 300 °C.

As to `Cc1ccc2cc(C(=O)O)ccc2n1`, the melting point came out at 250 °C.

The record behind these values is a melting point compilation (Tetko et al.).
